From patent publication US12077503B2, “Substituted cyclic amides and their use as herbicides” (FMC CORPORATION, priority 2015, dated 2024)

Assays:
Type in all cases: in vivo
[1] = test system: Kochia (Kochia scoparia); assay: Test A preemergence; conditions: Bassia scoparia, pre-emergence, 240 h, 0 to 100 scale where 0 is no effect and 100 is complete control, read-out: Kochia plant response rating
How it was run: (§1)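 Seeds sprayed preemergence with a directed soil spray, or plants at 2 to 10 cm height and one- to two-leaf stage sprayed postemergence, with test chemicals in a non-phytotoxic solvent mixture containing surfactant, in loam soil–sand blend. Injury rated visually against untreated controls after about 10 d in greenhouse, 0 (no effect) to 100 (complete control).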

[2] = test system: barnyardgrass (Echinochloa crus-galli); assay: Test A preemergence; conditions: Echinochloa crus-galli, pre-emergence, 240 h, 0 to 100 scale where 0 is no effect and 100 is complete control, read-out: Barnyardgrass plant response rating
How it was run: as §1

[3] = test system: giant foxtail (Setaria faberii); assay: Test A preemergence; conditions: Setaria faberi, pre-emergence, 240 h, 0 to 100 scale where 0 is no effect and 100 is complete control, read-out: Foxtail, Giant plant response rating
How it was run: as §1

[4] = test system: pigweed (Amaranthus retroflexus); assay: Test A preemergence; conditions: Amaranthus retroflexus, pre-emergence, 240 h, 0 to 100 scale where 0 is no effect and 100 is complete control, read-out: Pigweed plant response rating
[5] = test system: ragweed (common ragweed, Ambrosia elatior); assay: Test A preemergence; conditions: Ambrosia artemisiifolia, pre-emergence, 240 h, 0 to 100 scale where 0 is no effect and 100 is complete control, read-out: Ragweed plant response rating
How it was run: as §1

[6] = test system: ryegrass, Italian (Italian ryegrass, Lolium multiflorum); assay: Test A preemergence; conditions: Lolium multiflorum, pre-emergence, 240 h, 0 to 100 scale where 0 is no effect and 100 is complete control, read-out: Ryegrass, Italian plant response rating
How it was run: as §1

[7] = test system: Galium (catchweed bedstraw, Galium aparine); assay: Test A postemergence; conditions: Galium, post-emergence, 240 h
How it was run: as §1

[8] = test system: Kochia (Kochia scoparia); assay: Test A postemergence; conditions: Bassia scoparia, post-emergence, 240 h
How it was run: as §1

[9] = test system: barnyardgrass (Echinochloa crus-galli); assay: Test A postemergence; conditions: Echinochloa crus-galli, post-emergence, 240 h
How it was run: as §1

[10] = test system: blackgrass (Alopecurus myosuroides); assay: Test A postemergence; conditions: Alopecurus myosuroides, post-emergence, 240 h
How it was run: as §1

[11] = test system: corn (Zea mays); assay: Test A postemergence; conditions: Zea mays, post-emergence, 240 h
How it was run: as §1

[12] = test system: giant foxtail (Setaria faberii); assay: Test A postemergence; conditions: Setaria faberi, post-emergence, 240 h
How it was run: as §1

[13] = test system: pigweed (Amaranthus retroflexus); assay: Test A postemergence; conditions: Amaranthus retroflexus, post-emergence, 240 h
How it was run: as §1

[14] = test system: ragweed (common ragweed, Ambrosia elatior); assay: Test A postemergence; conditions: Ambrosia artemisiifolia, post-emergence, 240 h
How it was run: as §1

[15] = test system: ryegrass, Italian (Italian ryegrass, Lolium multiflorum); assay: Test A postemergence; conditions: Lolium multiflorum, post-emergence, 240 h
How it was run: as §1

[16] = test system: wheat (Triticum aestivum); assay: Test A postemergence; conditions: Triticum aestivum, post-emergence, 240 h
How it was run: as §1

[17] = test system: barnyardgrass (Echinochloa crus-galli); assay: Test B flooded paddy test; conditions: Echinochloa crus-galli, 250 g ai/ha, Flood; 0 to 100 scale where 0 is no effect and 100 is complete control; read-out: Barnyardgrass plant response rating
How it was run: (§2)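 Greenhouse paddy pots with 2-leaf stage plants received compound by direct addition to floodwater 3 cm deep, kept at that level. Scored visually at 13–15 d versus controls (0 no effect; 100 complete control).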

[18] = test system: ducksalad (Heteranthera limosa); assay: Test B flooded paddy test; conditions: Heteranthera limosa, 250 g ai/ha, Flood; 0 to 100 scale where 0 is no effect and 100 is complete control; read-out: Ducksalad plant response rating
How it was run: as §2

[19] = test system: rice (Oryra sativa); assay: Test B flooded paddy test; conditions: Oryza sativa, 250 g ai/ha, Flood; 0 to 100 scale where 0 is no effect and 100 is complete control; read-out: Rice plant response rating
How it was run: as §2

[20] = test system: sedge, umbrella (small-flower umbrella sedge, Cyperus difformis); assay: Test B flooded paddy test; conditions: Cyperus difformis, 250 g ai/ha, Flood; 0 to 100 scale where 0 is no effect and 100 is complete control; read-out: Sedge, Umbrella plant response rating
How it was run: as §2

[21] = 125 g ai/ha, preemergence, approx. 10 d

SMILES: CN1C[C@H](c2csc3c2CCOC3)[C@@H](C(=O)Nc2ccc(F)c(F)c2F)C1=O [Compound 1077]
- pest or weed control at 31 g/ha ([1]; 31 g ai/ha, Preemergence): 0%
- pest or weed control at 125 g/ha [1, 21]: 20%
- pest or weed control at 31 g/ha ([2]; 31 g ai/ha, Preemergence): 80%
- pest or weed control at 125 g/ha [2, 21]: 100%
- pest or weed control at 31 g/ha ([3]; 31 g ai/ha, Preemergence): 100%
- pest or weed control at 125 g/ha [3, 21]: 100%
- pest or weed control at 31 g/ha ([4]; 31 g ai/ha, Preemergence): 0%
- pest or weed control at 125 g/ha [4, 21]: 0%
- pest or weed control at 31 g/ha ([5]; 31 g ai/ha, Preemergence): 0%
- pest or weed control at 125 g/ha [5, 21]: 0%
- pest or weed control at 31 g/ha ([6]; 31 g ai/ha, Preemergence): 0%
- pest or weed control at 125 g/ha [6, 21]: 10%
- pest or weed control at 125 g/ha ([7]; 125 g ai/ha, postemergence, visual injury on 0 to 100 scale (0 no effect, 100 complete control), approx. 10 d, read-out: Galium plant response rating): 70%
- pest or weed control at 31 g/ha ([7]; Postemergence, 31 g ai/ha, visual injury after approx. 10 d, 0 to 100 scale, 0 no effect, 100 complete control, read-out: Plant response rating, Galium): 20%
- pest or weed control at 125 g/ha ([8]; 125 g ai/ha, postemergence, visual injury on 0 to 100 scale (0 no effect, 100 complete control), approx. 10 d, read-out: Kochia plant response rating): 0%
- pest or weed control at 31 g/ha ([8]; Postemergence, 31 g ai/ha, visual injury after approx. 10 d, 0 to 100 scale, 0 no effect, 100 complete control, read-out: Plant response rating, Kochia): 0%
- pest or weed control at 125 g/ha ([9]; 125 g ai/ha, postemergence, visual injury on 0 to 100 scale (0 no effect, 100 complete control), approx. 10 d, read-out: Barnyardgrass plant response rating): 90%
- pest or weed control at 31 g/ha ([9]; Postemergence, 31 g ai/ha, visual injury after approx. 10 d, 0 to 100 scale, 0 no effect, 100 complete control, read-out: Plant response rating, Barnyardgrass): 70%
- pest or weed control at 125 g/ha ([10]; 125 g ai/ha, postemergence, visual injury on 0 to 100 scale (0 no effect, 100 complete control), approx. 10 d, read-out: Blackgrass plant response rating): 30%
- pest or weed control at 31 g/ha ([10]; Postemergence, 31 g ai/ha, visual injury after approx. 10 d, 0 to 100 scale, 0 no effect, 100 complete control, read-out: Plant response rating, Blackgrass): 0%
- plant injury at 125 g/ha ([11]; 125 g ai/ha, postemergence, visual injury on 0 to 100 scale (0 no effect, 100 complete control), approx. 10 d, read-out: Corn plant response rating): 10%
- Corn plant response rating (crop injury, 0 = no effect, 100 = complete kill) at 31 g/ha ([11]; Postemergence, 31 g ai/ha, visual injury after approx. 10 d, 0 to 100 scale, 0 no effect, 100 complete control): 0%
- pest or weed control at 125 g/ha ([12]; 125 g ai/ha, postemergence, visual injury on 0 to 100 scale (0 no effect, 100 complete control), approx. 10 d, read-out: Foxtail, Giant plant response rating): 90%
- pest or weed control at 31 g/ha ([12]; Postemergence, 31 g ai/ha, visual injury after approx. 10 d, 0 to 100 scale, 0 no effect, 100 complete control, read-out: Plant response rating, Foxtail, Giant): 50%
- pest or weed control at 125 g/ha ([13]; 125 g ai/ha, postemergence, visual injury on 0 to 100 scale (0 no effect, 100 complete control), approx. 10 d, read-out: Pigweed plant response rating): 0%
- pest or weed control at 31 g/ha ([13]; Postemergence, 31 g ai/ha, visual injury after approx. 10 d, 0 to 100 scale, 0 no effect, 100 complete control, read-out: Plant response rating, Pigweed): 0%
- pest or weed control at 125 g/ha ([14]; 125 g ai/ha, postemergence, visual injury on 0 to 100 scale (0 no effect, 100 complete control), approx. 10 d, read-out: Ragweed plant response rating): 0%
- pest or weed control at 31 g/ha ([14]; Postemergence, 31 g ai/ha, visual injury after approx. 10 d, 0 to 100 scale, 0 no effect, 100 complete control, read-out: Plant response rating, Ragweed): 0%
- pest or weed control at 125 g/ha ([15]; 125 g ai/ha, postemergence, visual injury on 0 to 100 scale (0 no effect, 100 complete control), approx. 10 d, read-out: Ryegrass, Italian plant response rating): 20%
- pest or weed control at 31 g/ha ([15]; Postemergence, 31 g ai/ha, visual injury after approx. 10 d, 0 to 100 scale, 0 no effect, 100 complete control, read-out: Plant response rating, Ryegrass, Italian): 0%
- plant injury at 125 g/ha ([16]; 125 g ai/ha, postemergence, visual injury on 0 to 100 scale (0 no effect, 100 complete control), approx. 10 d, read-out: Wheat plant response rating): 0%
- plant injury at 31 g/ha ([16]; Postemergence, 31 g ai/ha, visual injury after approx. 10 d, 0 to 100 scale, 0 no effect, 100 complete control, read-out: Plant response rating, Wheat): 0%
- pest or weed control at 250 g/ha [17]: 85%
- pest or weed control at 250 g/ha [18]: 90%
- pest or weed control at 250 g/ha [19]: 15%
- pest or weed control at 250 g/ha [20]: 0%
